Activity calls are given as the source filed them. The rule behind the calls is not given here.
Tests used:
[1] = Tmax in tumor of BALB/c mouse xenografted with mouse 4T1 cells at 10 mg/kg, iv measured after […] by fluorescence assay; format: ADME, organism-based, Neoplasm
[2] = Selectivity index, ratio of dark toxicity against human MCF7 at 0.5 uM cells to phototoxicity against human MCF7 cells at 0.5 uM; format: cell-based; conditions: read-out: Selectivity Index
4T1 [3] = experiment: Induction of apoptosis in mouse 4T1 cells xenografted in BALB/c mouse at 4 mg/kg, iv after 24 hrs by TUNEL assay; format: functional, organism-based
MDA-MB-231 [4] = experiment: Induction of apoptosis in human MDA-MB-231 cells assessed as late apoptotic cells after 24 hrs upon light irradiation by Annexin-V FITC/propidium iodide staining based flow cytometric analysis (reference value: 1.28%); format: functional
MDA-MB-231 [5] = experiment: Induction of ROS generation in human MDA-MB-231 cells incubated with DCF-DA probe for 30 mins prior to ROS scavenger NAC addition 1 hr before 2 J/cm2 light irradiation and measured after 1 hr post irradiation by flow cytometric analysis; format: functional, cell-based
Mus musculus [6] = experiment: Toxicity in BALB/c mouse xenografted with mouse 4T1 cells assessed as pathological changes in lung at 4 mg/kg, iv measured at day 22 post dose by hematoxylin and eosin staining based light microscopic analysis; format: organism-based; conditions: in vivo
Mus musculus [7] = experiment: Toxicity in BALB/c mouse xenografted with mouse 4T1 cells assessed as pathological changes in spleen at 4 mg/kg, iv measured at day 22 post dose by hematoxylin and eosin staining based light microscopic analysis; format: organism-based; conditions: in vivo
MDA-MB-231 [8] = experiment: Induction of ROS generation in human MDA-MB-231 cells incubated with DCF-DA probe for 30 mins by flow cytometric analysis (reference value: 2.1%); format: cell-based; conditions: mda-mb-231, 0.5 h
4T1 [9] = experiment: Antitumor activity against mouse 4T1 cells xenografted in BALB/c mouse assessed as inhibition of tumor volume at 1 mg/kg, iv pretreated for 24 hrs followed by 50 J/cm2 light irradiation and measured at day 22 post dose relative to control; format: functional; conditions: 4T1, light or radiation study
[10] = Induction of singlet oxygen generation in cell free condition upon 635 nm semiconductor laser light irradiation by singlet oxygen sensor green dye based fluorescence spectrophotometeric analysis; format: functional
Mus musculus [11] = experiment: Toxicity in BALB/c mouse xenografted with mouse 4T1 cells assessed as effect on body weight at 1 mg/kg, iv pre-tretaed for 24 hrs followed by 50 J/cm2 light irradiation and measured at day 22 post dose; format: organism-based; conditions: in vivo
MDA-MB-231 [12] = experiment: Induction of apoptosis in human MDA-MB-231 cells assessed as late apoptotic cells after 24 hrs by Annexin-V FITC/propidium iodide staining based flow cytometric analysis (reference value: 1.28%); format: cell-based; conditions: mda-mb-231, 24 h
[13] = Selectivity index, ratio of dark toxicity against mouse 4T1 cells at 0.5 uM to phototoxicity against mouse 4T1 cells at 0.5 uM; format: cell-based; conditions: read-out: Selectivity Index
4T1 [14] = experiment: Phototoxicity against mouse 4T1 cells assessed as cell viability at 0.5 uM preincubated for 4 hrs followed by 2 J/cm2 light irradiation and measured after 24 hrs by MTT assay relative to control; format: functional; conditions: 4T1, light or radiation study, read-out: Activity
[15] = Dark toxicity against mouse 4T1 cells assessed as cell viability at 0.5 uM after 24 hrs by MTT assay; format: cell-based; conditions: 4t1, 24 h
MDA-MB-231 [16] = experiment: Induction of ROS generation in human MDA-MB-231 cells incubated with DCF-DA probe for 30 mins followed by 2 J/cm2 light irradiation and measured after 1 hr by flow cytometric analysis (reference value: 2.1%); format: functional
MCF7 = experiment: Phototoxicity against human MCF7 cells assessed as cell viability at 0.5 uM preincubated for 4 hrs followed by 0.5 to 2 J/cm2 light irradiation and measured after 24 hrs by MTT assay; format: functional, cell-based
[17] = Drug uptake in lysosome of human MDA-MB-231 cells at 10 uM after 4 hrs by Lyso tracker green-based confocal laser scanning microscopic analysis; format: ADME, subcellular; conditions: mda-mb-231, 4 h
[18] = Selectivity index, ratio of dark toxicity against human MDA-MB-231 cells at 0.5 uM to phototoxicity against human MDA-MB-231 cells at 0.5 uM; format: cell-based; conditions: read-out: Selectivity Index
MDA-MB-231 [19] = experiment: Induction of apoptosis in human MDA-MB-231 cells assessed as early apoptotic cells after 24 hrs by Annexin-V FITC/propidium iodide staining based flow cytometric analysis (reference value: 1.22%); format: cell-based; conditions: mda-mb-231, 24 h
MDA-MB-231 [20] = experiment: Induction of apoptosis in human MDA-MB-231 cells assessed as early apoptotic cells after 24 hrs upon light irradiation by Annexin-V FITC/propidium iodide staining based flow cytometric analysis (reference value: 1.22%); format: functional
4T1 [21] = experiment: Antitumor activity against mouse 4T1 cells xenografted in BALB/c mouse assessed as inhibition of tumor volume at 2 mg/kg, iv pretreated for 24 hrs followed by 50 J/cm2 light irradiation and measured at day 22 post dose relative to control; format: functional; conditions: 4T1, light or radiation study
Mus musculus [22] = experiment: Toxicity in BALB/c mouse xenografted with mouse 4T1 cells assessed as effect on body weight at 4 mg/kg, iv pre-tretaed for 24 hrs followed by 50 J/cm2 light irradiation and measured at day 22 post dose; format: organism-based; conditions: in vivo
4T1 [23] = experiment: Antitumor activity against mouse 4T1 cells xenografted in BALB/c mouse at 4 mg/kg, iv preincubated for 24 hrs and measured at day 22 post dose; format: functional, organism-based
[24] = Drug uptake in kidney of BALB/c mouse xenografted with mouse 4T1 cells at 10 mg/kg, iv measured at 12 hrs post injection by IVIS spectrum imaging; format: ADME, organism-based; conditions: in vivo
[25] = Dark toxicity against human MCF7 cells assessed as cell viability at 0.5 uM after 24 hrs by MTT assay; format: cell-based; conditions: mcf7, 24 h
MDA-MB-231 [26] = experiment: Induction of ROS generation in human MDA-MB-231 cells incubated with DCF-DA probe for 30 mins by flow cytometric analysis (reference value: 5.81%); format: cell-based; conditions: mda-mb-231, 0.5 h
MDA-MB-231 [27] = experiment: Induction of ROS generation in human MDA-MB-231 cells incubated with DCF-DA probe for 30 mins followed by 2 J/cm2 light irradiation and measured after 1 hr by flow cytometric analysis (reference value: 5.81%); format: functional

Tmax [1]	Drug uptake [17]	SMILES	selectivity ratio at 0.5 µM [2]	Activity (4T1 [3])	Activity (MDA-MB-231 [4])	Activity (MDA-MB-231 [5])	Activity (Mus musculus [6])	Activity (Mus musculus [7])	inhibition in vivo at 1 mg/kg (4T1 [9])	Activity [10]	Activity (Mus musculus [11])	Activity (MDA-MB-231 [12])	selectivity ratio at 0.5 µM [13]	viability at 0.5 µM (4T1 [14])	Activity [15]	Activity (MCF7)	selectivity ratio at 0.5 µM [18]	Activity (MDA-MB-231 [19])	Activity (MDA-MB-231 [20])	inhibition in vivo at 2 mg/kg (4T1 [21])	other results
12 h	Active	C=CC1=C(C)c2cc3[nH]c(cc4nc(cc5[nH]c(cc1n2)c(C)c5CCC(=O)[O-])C(CCC(=O)[O-])=C4C)c(C)c3C(C)OCCCCCC.[Na+].[Na+] (stereo unspecified)	24.2	inactive	40.09%	inactive	Non-Toxic	Non-Toxic	15.4%	Dose-dependent effect	Non-Toxic	2.73%	21.7	54.6%	Non-Toxic	Active	59.6	4.02%	7.17%	28%	Activity (MDA-MB-231 [8]): 2.21%; Activity (MDA-MB-231 [16]): 46.7%; Activity (Mus musculus [22]): Non-Toxic; Activity (4T1 [23]): inactive; Drug uptake [24]: Not Active; Activity [25]: Non-Toxic
12 h	Active	C=Cc1c(C)c2cc3nc(cc4[nH]c(cc5nc(cc1[nH]2)C(C)=C5C(C)OCCCCCC)c(C)c4CCC(=O)[O-])C(CCC(=O)[O-])=C3C.[Na+].[Na+] (stereo unspecified)	90.8	inactive	53.54%	inactive	Non-Toxic	Non-Toxic	27.8%	Dose-dependent effect	Non-Toxic	2.34%	68.5	47.3%	Non-Toxic	Active	161	3.72%	3.82%	43%	Activity (MDA-MB-231 [26]): 6.34%; Activity (Mus musculus [22]): Non-Toxic; Drug uptake [24]: Not Active; Activity [25]: Non-Toxic; Activity (MDA-MB-231 [27]): 87.84%
